Measurements reported in patent US20190262343A1, “WOUND HEALING USING BRAF INHIBITORS” (THE REGENTS OF THE UNIVERSITY OF CALIFORNIA, priority 2016, published 2019).

What was measured:
[1] = tested on: BRAF^V600E mutant melanoma line M249; assay: Soft agar colony forming assay, M249; format: cell-based, human; details: 1.5 μM vemurafenib, one week
[2] = tested on: Human epidermal adult keratinocytes (HEKa); assay: Scratch assay of keratinocyte monolayer (cell proliferation and migration, automated microscope); format: cell-based; details: 1.5 μM vemurafenib vs no vemurafenib, evident at 6, 8 and 12 hours
Experimental: Human epidermal adult keratinocytes (HEKa) were purchased from Invitrogen (Grand Island, N.Y.; C-005-5C). HEKa cells (25,000/well) were plated on 96-well ImageLock cell migration plates (Essen Bioscience, Ann Arbor, Mich.) and incubated overnight. Then, the cell monolayer was scratched with a 96-pin WoundMaker (Essen Bioscience), and the cells washed with PBS prior to adding cell medium. Cells were maintained in culture with a concentration of 1.5 μM of vemurafenib until complete scratch closure. Cell migration was monitored by a microscope gantry inside a cell incubator, which was connected to a networker external controller hard drive that gathered and processed image data (Incucyte, Essen Bioscience, Ann Arbor, Mich.). This allows an automated and non-invasive method of monitoring live cells in culture. […]
Human epithelial adult keratinocytes (HEKa) cultured as a monolayer in 96-well plates were subject to a scratch assay, where proliferating keratinocytes should regrow and cover the scratch. Replicate cultures with or without the BRAF inhibitor vemurafenib were placed in an incubator with an automated microscope analyzer and the number of nucleated cells in the original scratch was recorded over time. […]

[3] = tested on: CD68+, IL-6+, COX-2+, PECAM-1+ cells; assay: Immunohistochemistry of incisional wounds (CD68, IL-6, COX-2, PECAM-1); format: in vivo, mice
Description: Dorsal skin wounds from CH3 mice treated with vemurafenib suspension or DMSO in saline control suspension were excised at day 2, 6 and 14. They were fixed in 10% neutral buffered formalin and embedded in paraffin and stained with hematoxylin and eosin (H&E) using standard methods. Balb/c mice were sacrificed at day 2, 6 and 14 with isoflurane overdose. Two 8-mm round pieces of tissue were collected from each Balbc/c mouse containing the whole wound area and the surrounding tissue and skin, cut precisely in half at the midline of the wound and fixed in 1% paraformaldehyde (PFA) for 16-18 hours at 4° C., dehydrated in 70% EtOH, and then paraffin embedded. Sections were cut at 4 μm, deparaffinized with xylene and descendant ethanol, and then incubated in 3% H2O2 for 10 minutes. After a wash in distilled water, the slides were incubated for 25 minutes in citrate buffer pH6 (Invitrogen) at 95° C. using a vegetable steamer. […] The imaging and quantification of the cell-based immunohistochemistry, was performed with the HALO Next Generation Imaging analysis software (Indica Labs; Corrales, N. Mex.). […] The number of pERK+, Ki67+ and PECAM-1+ cells was automatically counted with the HALO software. Three 20× fields of view from each side of the wound were automatically counted for pERK and Ki67 stains. PECAM-1+ and CD68+ cells were automatically counted on each side of the wound edges where the granulation tissue starts (1 mm length each side) on the excisional wound splinting model, and in the entire wound area on the incisional wound model.
To elaborate on the activated pathways associated with the increased presence of wound healing cell subsets at this time point, the genes up-expressed in the vemurafenib-treated wounds were analyzed for enriched GO biological processes 2 fold increase) using ClueGo (Bindea, G. et al., Bioinformatics 25:1091-93 (2009)). […] To confirm these findings, the levels of COX-2+ and IL-6+ cells were quantified by immunohistochemistry. […]

[4] = tested on: HEKa cells; assay: Soft agar colony forming assay, HEKa; format: cell-based, human; details: 1.5 μM vemurafenib
Experimental: Twenty four-well plates were covered with 300 μl of serum-free RPMI 1640 (Fisher Scientific, Hampton, N.H.) with 0.6% Noble agar (BD Biosciences, San Jose, Calif.), and incubated at 37° C. overnight, until solid. 300 μl of a suspension of HEKa and M249 cells (15,000 cells/ml) in a 1:1 mixture of growth medium with a concentration of 1.5 μM of vemurafenib and growth factor-reduced matrigel (BD Biosciences) was added to each well. After one week, automated colony quantification was performed using a BioSpot Series 5 UV analyzer.
Using these cultures, MAPK signaling was analyzed by western blot (FIGS. 2G-2H); and pERK and cell proliferation were analyzed by quantitative intracellular flow (phosphoflow) cytometry (FIG. 2I and FIGS. 4A-4B). […] Furthermore, in the presence of vemurafinab the proliferative marker Ki67 decreased in M249 melanoma cells while it increased in HEKa cells (FIGS. 21-2J).

For `CCCS(=O)(=O)Nc1ccc(F)c(C(=O)c2c[nH]c3ncc(-c4ccc(Cl)cc4)cc23)c1F` [vemurafenib], the “M249 colonies in soft agar” value [1] was “decrease in colonies”, the “covering of the original scratch” value [2] was “statistically significant improvement in the covering of the original scratch” and the “macrophages (CD68+ cells) in wounds by IHC” value ([3]; day 6, topical) was “increase in macrophages”. For the same compound, the “increase of PECAM-1+ cells” value ([3]; incisional wound model, p=0.02) was 65%, the “IL-6+ and COX-2+ cells” value ([3]; proliferation stage, day 6) was “higher IL-6+ and COX-2+ cells” and the “HEKa colonies in soft agar” value ([4]; one week) was “HEKa colonies proliferated”. The “mean spot size of HEKa colonies” value ([4]; p=0.007) was “increased significantly”.
